Results published in BigSolDB 2.1.

C[C@@H](Oc1ccc(Oc2nc3ccc(Cl)cc3o2)cc1)C(=O)N(C)c1ccccc1F
solubility (mole fraction)
Conditions	in cyclohexane	in isobutanol	in isopentanol	in isopropanol	in n-butanol	in n-hexane	in n-pentanol	in n-propanol	in sec-butanol
278.15 K	–	0.00347	0.00526	0.00231	0.00631	0.000329	0.00739	0.00476	0.00344
283.15 K	0.00449	0.00487	0.00724	0.00315	0.00822	0.000495	0.00951	0.00646	0.00491
288.15 K	0.00627	0.00676	0.00977	0.00422	0.0109	0.000594	0.0123	0.00876	0.00683
293.15 K	0.00814	0.00921	0.013	0.00543	0.0139	0.000811	0.015	0.0115	0.00919
298.15 K	0.0115	0.0126	0.0173	0.00714	0.0183	0.00112	0.0187	0.0155	0.0122
303.15 K	0.0146	0.0169	0.0216	0.00963	0.0237	0.00156	0.0228	0.0209	0.016
308.15 K	0.0208	–	–	–	–	0.00196	–	–	–
313.15 K	0.0287	–	–	–	–	0.00245	–	–	–
